The target of assay [1] is T1, TGFBIp611-633 G623R peptide (Homo sapiens, UniProt Q15582, G623R).
T1 construct: The 23-amino acid long peptide (TGFBIp 611-633 c.623 G>R) from the 4th FAS1 domain; purchased Synpeptide Co Ltd, Shanghai, China; host or cells: synthetic peptide
Briefly: ThT fluorescence assay, inhibition of amyloid fibrillation. It is filed as biochemical. The following applies: for inhibition at 200000 µM: 200 mM. Here is the method:
The 23-amino acid long peptide (TGFBIp 611-633 c.623 G>R) from the 4th FAS1 domain of TGFBIp with the substitution, G623→R ([…]) that rapidly formed amyloid fibrils was used in this study. The peptide was dissolved (0.6 mg/ml) in PBS and allowed to form amyloid fibrils in 50 ml Falcon tubes in a shaking incubator at 37° C. and 180 rpm with and without the addition of osmolytes. […] The TGFBIp^611-633 G623R peptide incubated with PBS was used as a control.
The peptide samples collected at various time points above were treated with 30 μM Thioflavin T (ThT) (Sigma-Aldrich Inc., MO, USA) in PBS buffer at pH 5.5 in a 96-well microplate (Greiner Bio-One, Frickenhausen, Germany) for ThT fluorescence assay. The microplate was excited at 445 nm and the resulting emission fluorescence at 485 nm was measured using a microplate reader (Tecan Infinite M200 Pro, CA, USA).
Percentage inhibition for each osmolyte treatment was calculated by subtracting the baseline fluorescent intensity without the peptides and compounds from the observed fluorescent intensity of each treatment well. The fluorescent intensities per osmolyte treatment were normalized against the untreated fluorescent intensity per time point and expressed as a percentage.
The TGFBIp^611-633 G623R peptides were treated with 200 mM and 320 mM of taurine for up to 72 hours, respectively, the results of which are illustrated in FIG. 11. The TGFBIp^611-633 N622K peptides were treated with 200 mM and 320 mM of taurine for up to 240 hours, respectively, the results of which are illustrated in FIG. 12. The peptides incubated with PBS were used as controls.
The peptide samples were collected at 24 h, 48 h and 72 h after treatment for TGFBIp^611-633 G623R peptides and at 120 h, 144 h and […] after treatment for the TGFBIp^611-633 N622K peptides. The samples were then treated with 30 μM ThT in PBS buffer at pH 5.5 in a 96-well microplate for ThT fluorescence assay. The microplate was excited at 445 nm and the resulting emission fluorescence at 485 nm was measured using a microplate reader.

Assay [2] concerns the target T2, preformed amyloid fibrils from TGFBIp611-633 G623R peptide (Homo sapiens, UniProt Q15582, G623R).
T2 construct: The 23-amino acid long peptide (TGFBIp 611-633 c.623 G>R) from the 4th FAS1 domain; purchased Synpeptide Co Ltd, Shanghai, China; host or cells: synthetic peptide
Briefly: ThT fluorescence assay, dissolution of preformed amyloid fibrils. It is filed as biochemical. The following applies: for inhibition at 200000 µM: preformed fibrils, read-out: % Inhibition (mean ± SD) n = 3, dissolution of amyloid fibrils, ThT fluorescence; for % Dissolution at final time point, ThT: TGFBIp-G623R preformed fibrils. Here is the method: The TGFBIp^611-633 G623R peptides were incubated in PBS for 24 hours, allowed to form uniform amyloid fibrils. The TGFBIp^611-633 G623R peptide solution was then subjected to Circular Dichroism spectroscopy to confirm the formation of amyloid fibrils.
The preformed amyloid fibril solution incubated with PBS was used as a control.
The peptide samples collected at the various time points above were treated with 30 μM ThT in PBS buffer at pH 5.5 in a 96-well microplate for ThT fluorescence assay. The microplate was excited at […] and the resulting emission fluorescence at 485 nm was measured using a microplate reader (Tecan Infinite M200 Pro, CA, USA).
The preformed amyloid fibrils were treated with taurine at a concentration of 200 mM and 320 mM for up to 72 hours, respectively. The preformed amyloid fibrils incubated with PBS were used as controls.
The samples were collected at 24 h, 48 h and 72 h after treatment for the TGFBIp^611-633 G623R peptides, and at 24 h, 48 h, 96 h and 144 h after treatment for the TGFBIp^611-633 N622K peptides. The samples were then treated with 30 μM ThT in PBS buffer at pH 5.5 in a 96-well microplate for ThT fluorescence assay. The microplate was excited at 445 nm and the resulting emission fluorescence at 485 nm was measured using a microplate reader.

Assay [3] addresses T3, TGFBIp 611-633 c.623 G>R fibrils (Homo sapiens, UniProt Q15582, G623R).
T3 construct: The 23-amino acid long peptide (TGFBIp 611-633 c.623 G>R) from the 4th FAS1 domain; purchased Synpeptide Co Ltd, Shanghai, China; host or cells: synthetic peptide
Briefly: Transmission Electron Microscopy of preformed fibrils. The following applies: 72 hours treatment. How it is done:
The disaggregation of preformed amyloid fibrils was also verified by TEM analysis as illustrated in FIG. 8B. Morphological analysis of the TGFBIp 611-633 c.623 G>R fibrils before and after treatment with osmolytes for 72 hours was investigated by Transmission electron microscopy (TEM) with a JEOL JEM-1010 transmission electron microscope using Digital Micrograph™ 1.81.78 for GMS 1.8.0 (Gatan, Pleasanton, Calif.) at the Singhealth-core Electron Microscopy facility. 10 μl of amyloid fibril samples with and without osmolyte treatment were applied onto Formvar-carbon coated 300-mesh-size nickel grids. The samples were stained with Uranyl acetate solution, washed, dried, and observed at magnifications 8000-50000× at 80 kV.

[4] abbreviates: 24 h, read-out: % Inhibition (mean ± SD) n = 3, ThT fluorescence.
Setting [5] is: 48 h, read-out: % Inhibition (mean ± SD) n = 3, ThT fluorescence.
Where [6] appears, read: 72 h, read-out: % Inhibition (mean ± SD) n = 3, ThT fluorescence.
Setting [7] is: TGFBIp-G623R, 320 mM, final time point.

Where two headings read alike, the source gives them in different places.

Usually inhibition stands for the drop in the measured response relative to a control, in per cent. The term % Inhibition denotes the relative decrease from the control value, in per cent. Read a high % Inhibition as a strong effect.

T1 sequence (Q15582 611-633 G623R limits assumed): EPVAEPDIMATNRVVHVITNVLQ

Turning to `OC[C@H]1O[C@H](OC[C@H]2O[C@H](O[C@]3(CO)O[C@H](CO)[C@@H](O)[C@@H]3O)[C@H](O)[C@@H](O)[C@@H]2O)[C@H](O)[C@@H](O)[C@H]1O` [Raffinose, raffinose], the inhibition at 200000 µM is 21 ± 6% in assay [1] (setting [4]); 32 ± 2% in assay [1] (setting [5]); 65% in assay [1] (setting [6]); 14 ± 4% in assay [2] (200 mM, 24 h); 48 ± 6% in assay [2] (200 mM, 48 h); 64% in assay [2] (200 mM, 72 h). The “TEM morphology of fibrils” value in assay [3] is given as “reduction in density of ordered amyloid fibrils was evident”.
As for `NCCS(=O)(=O)O` [Taurine, taurine], the inhibition at 200000 µM in assay [1] (setting [4]) was determined as 20 ± 6%; in assay [1] (setting [5]), 34 ± 5%; in assay [1] (setting [6]), 48%; in assay [1] (TGFBIp-G623R, final time point, read-out: % Inhibition at final time point, ThT), 41%; in assay [2] (200 mM, 24 h), 23 ± 1%; in assay [2] (200 mM, 48 h) it was 52 ± 5%. Besides, the inhibition at 200000 µM in assay [2] (200 mM, 72 h) came to 61%. Also, the “% Inhibition at final time point, ThT” value in assay [1] (setting [7]) came out at 60%. For the same compound, 320000 µM produced 61% inhibition in assay [1] (setting [7]). In addition, the “% Dissolution at final time point, ThT” value in assay [2] (200 mM) is 63%; in assay [2] (200 mM, listed as taurine), 64%; in assay [2] (320 mM), 83%; in assay [2] (320 mM, listed as taurine), 83%. In assay [3], the “TEM morphology of fibrils” value is listed as “reduction in density of ordered amyloid fibrils was evident”.
With `CNCC(=O)O` [Sarcosine, sarcosine], the inhibition at 200000 µM is 20 ± 3% in assay [1] (setting [4]); 32 ± 2% in assay [1] (setting [5]); 56% in assay [1] (setting [6]); 24 ± 3% in assay [2] (200 mM, 24 h); 47 ± 4% in assay [2] (200 mM, 48 h); 53 ± 3% in assay [2] (200 mM, 72 h). In addition, the “TEM morphology of fibrils” value in assay [3] was “reduction in density of ordered amyloid fibrils was evident”.
Regarding `C[N+](C)(C)CC(=O)O` [Betaine, betaine], the inhibition at 200000 µM in assay [1] (setting [4]) worked out at 16 ± 3%; in assay [1] (setting [5]) it was 26 ± 3%; in assay [1] (setting [6]), 44%; in assay [2] (200 mM, 24 h), 4 ± 3%; in assay [2] (200 mM, 48 h), 34 ± 11%; in assay [2] (200 mM, 72 h) it was 37 ± 17%. Further, the “TEM morphology of fibrils” value in assay [3] was “reduction in density of ordered amyloid fibrils was evident”.

Source of the values: patent US20220265591A1, “USE OF AN OSMOLYTE IN MANUFACTURE OF A MEDICAMENT FOR TREATMENT OF OCULAR DISORDERS” (SINGAPORE HEALTH SERVICES PTELTD, priority 2019, published 2022).
